Assay results from ChEMBL document CHEMBL4052606, “The Bengamides: A Mini-Review of Natural Sources, Analogues, Biological Properties, Biosynthetic Origins, and Future Prospects” (J Nat Prod, 2017).

Assays:
[1] = target: Methionine aminopeptidase 2 (Homo sapiens, UniProt P50579); test: Inhibition of human MetAP2
HT-1080 = test: Cytotoxicity against human HT1080 cells
MDA-MB-435 [2] = test: Cytotoxicity against human MDA-MB-435 cells; type: functional, cell-based
MDA-MB-435 [3] = test: Cytotoxicity against human MDA-MB-435 cells assessed as reduction in cell viability after 24 hrs by MTT assay; type: functional, cell-based; details: MDA-MB-435, 24 h
MDA-MB-435 [4] = test: Cytotoxicity against human MDA-MB-435 cells assessed as reduction in cell viability after 72 hrs by MTS assay; details: MDA-MB-435, 72 h
A549 = test: Antiproliferative activity against human A549 cells after 96 hrs; details: A549, 96 h
HCT-116 = test: cells; details: Homo sapiens, HCT-116, 96 h
Description: Antiproliferative activity against human HCT116 cells after 96 hrs

MDA-MB-231 = test: Cytotoxicity against human MDA-MB-231 cells; type: functional, cell-based
[5] = target: Methionine aminopeptidase 1 (Homo sapiens, UniProt P53582); test: Inhibition of human MetAP1

Methionine aminopeptidase 2, sequence (P50579 whole entry): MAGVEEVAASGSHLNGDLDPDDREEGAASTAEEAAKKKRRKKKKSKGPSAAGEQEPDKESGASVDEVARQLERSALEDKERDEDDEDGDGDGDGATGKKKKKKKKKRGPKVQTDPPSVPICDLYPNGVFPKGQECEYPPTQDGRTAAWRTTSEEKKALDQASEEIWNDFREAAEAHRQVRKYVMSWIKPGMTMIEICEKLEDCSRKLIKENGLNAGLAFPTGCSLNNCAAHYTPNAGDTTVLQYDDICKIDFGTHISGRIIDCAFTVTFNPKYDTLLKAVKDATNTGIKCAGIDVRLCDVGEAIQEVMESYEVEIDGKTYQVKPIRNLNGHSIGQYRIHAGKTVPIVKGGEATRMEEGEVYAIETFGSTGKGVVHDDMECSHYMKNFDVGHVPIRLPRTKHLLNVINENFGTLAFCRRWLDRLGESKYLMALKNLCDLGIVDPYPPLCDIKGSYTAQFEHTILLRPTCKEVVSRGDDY

| SMILES | IC50 (MDA-MB-435 [2]) [nM] | IC50 (MDA-MB-435 [4]) [nM] | IC50 (HCT-116) [nM] | other results |
| --- | --- | --- | --- | --- |
| CC(C)(C)OC(=O)Nc1cccnc1C(=O)Nc1nccs1 |  |  |  | IC50 [1]: > 300000 nM; IC50 (HT-1080): 300 nM |
| CO[C@@H](C(=O)N[C@H]1CC[C@H](OC(=O)CCCCCCCCCCC(C)C)CN(C)C1=O)[C@H](O)[C@@H](O)[C@H](O)/C=C/C(C)C |  |  |  | IC50 [1]: > 50000 nM |
| CO[C@@H](C(=O)N[C@H]1CCCCN(CCOC(=O)C2CCCCC2)C1=O)[C@H](O)[C@@H](O)[C@H](O)/C=C/C(C)(C)C | 17 |  |  |  |
| CO[C@@H](C(=O)N[C@@H](C)C(=O)NCCOC(=O)C1CCCCC1)[C@H](O)[C@@H](O)[C@H](O)/C=C/C(C)(C)C |  |  |  | IC50 (MDA-MB-435 [3]): 4 nM |
| CNC(=O)[C@H](CC(C)C)NC(=O)[C@H](OC)[C@H](O)[C@@H](O)[C@H](O)/C=C/C(C)(C)C | 20000 |  |  |  |
| CO[C@@H](C(=O)N[C@H]1CCc2ccccc2NC1=O)[C@H](O)[C@@H](O)[C@H](O)/C=C/C(C)(C)C |  | 3.8 | 44 | IC50 (A549): 9 nM |
| CO[C@@H](C(=O)N[C@H]1CCCCNC1=O)[C@H](O)[C@@H](O)[C@H](O)/C=C/C1CCCC1 | 0.4 |  |  |  |
| CO[C@H]1[C@@H](OC(=O)/C=C/C=C/C=C/C=C/C(=O)O)CC[C@]2(CO2)[C@@H]1[C@@]1(C)O[C@@H]1CC=C(C)C |  |  |  | IC50 (MDA-MB-231): 54 nM; IC50 [1]: 200 nM |
| CO[C@@H](C(=O)N[C@H]1CC[C@@H](OC(=O)C2CCCCC2)CNC1=O)[C@H](O)[C@@H](O)[C@H](O)/C=C/C(C)(C)C |  | 40 | 23 to 40 | IC50 (A549): 13 nM |
| COc1ccc(N2CCN(c3nc(-c4ccccn4)nc4ccccc34)CC2)cc1 |  |  |  | IC50 [1]: > 100000 nM |
| CCCCCCCCCCCCCC(=O)OCCC[C@H](NC(=O)[C@H](OC)[C@H](O)[C@@H](O)[C@H](O)/C=C/C(C)(C)C)C(=O)NC | 190 |  |  |  |
| CO[C@@H](C(=O)N[C@H]1CC[C@@H](OC(=O)C2CCCCC2)CNC1=O)[C@H](O)[C@@H](O)[C@H](O)/C(C)=C/C(C)(C)C |  |  | 140 | IC50 [5]: > 10000 nM |
| CO[C@H](C(=O)N[C@H]1CCCCNC1=O)[C@@H](O)[C@H](O)[C@@H](O)/C=C/C(C)C | 4 |  |  |  |
| CC(C)/C=C/[C@@H](O)[C@H](O)[C@@H](O)[C@@H](O)C(=O)N[C@H]1CCCCNC1=O |  | 12000 |  |  |
| CO[C@H](C(=O)N[C@@H]1CCCCNC1=O)[C@@H](O)[C@H](O)[C@@H](O)/C=C/C(C)C |  |  | > 50000 |  |
| CO[C@@H](C(=O)N[C@H]1CCCCNC1=O)[C@H](O)[C@@H](O)[C@H](O)/C=C\C(C)C | 14 |  |  |  |
| CCCCCCCCCCCCCC(=O)O[C@H]1CC[C@H](NC(=O)[C@H](OC)[C@H](O)[C@@H](O)[C@H](O)/C=C/C(C)C)C(=O)NC1 [BENGAMIDE A] |  | 1 | 0.4 to 16 |  |
| CCCCCCCCCCCCCC(=O)O[C@H]1CC[C@H](NC(=O)[C@H](OC)[C@H](O)[C@@H](O)[C@H](O)/C=C/C(C)C)C(=O)N(C)C1 [BENGAMIDE B] |  | 2 |  |  |
| CO[C@@H](C(=O)N[C@H]1CCCCNC1=O)[C@H](O)[C@@H](O)[C@H](O)/C=C/C(C)C [BENGAMIDE E] | 3.8 | 4 to 7 | 3.8 to 600 |  |
| CO[C@@H](C(=O)N[C@H]1CC[C@H](O)CN(C)C1=O)[C@H](O)[C@@H](O)[C@H](O)/C=C/C(C)C [BENGAMIDE F] |  | 3 |  |  |
